Measured values: patent US6251903A, “Alkyl, azido, alkoxy, and fluoro-substituted and fused quinoxalinediones and the use thereof as glycine receptor antagonist” (priority 2000, dated 2001)
Where two headings read alike, the source gives them in different places.

What was measured:
[1] = molecular target: T1, glycine binding site of the NMDA receptor (Rattus norvegicus, UniProt P35439); test: 1 μM glycine-stimulated [3H]-MK801 binding assay, brain membrane homogenates
T1 construct: rat brain membrane homogenates that are enriched in NMDA receptors; tissue Pel-Freez, Rogers, Arkansas (frozen rat brains); host or cells: rat brain membrane homogenate
Procedure: This assay takes advantage of the dependence of the binding of [^3 H]-MK801 to the PCP receptor inside the pore of the NMDA channel on the presence of both glutamate and glycine. In the absence of glycine, but in the presence of glutamate, [^3 H]-MK801 cannot bind effectively to the PCP receptor because the NMDA channel remains closed and access of [^3 H]-MK801 to the PCP receptor inside the closed channel pore is severely restted.
The assay is conducted using rat brain membrane homogenates that are enriched in NMDA receptors. The membranes are prepared as follows. Frozen rat brains (obtained from Pel-Freez, Rogers, Arkansas) are homogenized in 15 volumes (w/v) of ice cold 0.32 M sucrose. The homogenate is spun at 1,000×g for ten minutes. The supernatant is collected and spun for 20 minutes at 44,000×g. The pellet is suspended in 15 volumes of water (relative to original brain weight). The homogenate is again spun at 44,000×g for twenty minutes. The pellet is resuspended in 5 volumes of water and the suspension is freeze-thawed 2 times. After the final thaw cycle, the suspension is brought to 15 volumes with water and spun at 44,000×g for twenty minutes. The pellet is resuspended in 5 volumes of ice-cold 10 mM HEPES, and is titrated to pH 7.4 with KOH containing 0.04% Triton X-100. Membranes are incubated with the Triton/HEPES buffer at 37° C. for 15 minutes. The volume is then brought to 15 with ice-cold 10 mM HEPES, pH 7.4, and spun/washed three times with spins of 44,000×g between washes. The final pellet is suspended in three volumes of 50 mM HEPES, pH 7.4, and the protein concentration is determined with a standard dye-binding protein assay (Bio-Rad, Richmond, Calif.). The suspension is stored at -80° C. until used. Only HPLC grade water is used for all buffers and suspensions/washings. The extensive washings are necessary to remove as much endogenous glycine from the membrane preparation as possible.
Nonspecific binding is defined as the difference in binding that occurs in the absence or presence of-PCP (final concentration: 100 μM). To determine the effect of 1 μM glycine on the binding of [^3 H]-MK801, bound radioactivity in the presence of 10 μM glutamate alone (final concentration) is subtracted from the bound radioactivity in the presence of both 10 μM glutamate and 1 μM glycine (final concentration). A 500 nM concentration (final) of 5,7-dichlorokynurenic (DCK) acid is added to all assay tubes. This concentration of the glycine antagonist DCK "buffers" most of the residual endogenous glycine that is not removed by the extensive washing steps that are carried out during the membrane preparation procedure.
The assays are incubated for 120 minutes at room temperature after which time the membrane-bound radioactivity is isolated from the free radioactivity by vacuum filtration through Whatman glass fiber filters that had been pretreated with 0.3% polyethyleneimine. Filtration is accomplished using a Brandel,48 well cell harvester. Filtered membranes are washed three times with 3 mL each of ice cold buffer. Filters are transferred to scintillation vials and 5 mL of scintillation cocktail is added. The vials are shaken overnight and the radioactivity is counted by liquid scintillation spectroscopy. The assays are done in triplicate and all experiments are conducted at least three times.

glycine binding site = glycine binding site (Rattus norvegicus, UniProt P35439); test: affinity for the glycine binding site / glycine/NMDA receptor (Ki; method not stated); conditions: for times less active than 6,7-dichloro-5-nitro-1,4-dihydroquinoxaline-2,3-dione at the glycine/NMDA receptor: from Ki
From the text: The binding affinities of quinoxaline-2,3-diones at NMDA receptor glycine sites also were estimated by electrophysiological assays with either cloned rat NMDA receptors expressed in Xenopus oocytes, or non-NMDA receptors expressed in oocytes by whole rat brain poly(A)^+ RNA. […] For NMDA receptors Ki values were approximated by averaging values at three subtype combinations (NR1A/NR2A, NR1A/NR2B, and NR1A/NR2C).

mice = test: anticonvulsant activity in maximum electroshock seizure (MES) experiments in mice; assay type: in vivo, male Swiss/Webster mice; conditions: for ED50 / ED100: Mus musculus; for ED100 / ED50 (MES) / IV peak of action: Table IV
Procedure: The seizure stimulus parameters were: 50 mA, 60 Hz, rectangular pulse, width 0.8 msec, duration 200 msec. Tonic hind limb extension observed after application of the electrical stimulus was recorded as occurrence of seizure. The drug was applied i.v. as an aqueous Tris (Tromethamine) solution.

[2] = penetration of the blood/brain barrier, access to the central nervous system; assay type: in vivo; conditions: inferred from Ki and MES ED50
neurons = conditions: literature; cited from earlier work
[3] = test system: glycine binding site of the NMDA receptor; conditions: literature; cited from earlier work
[4] = cited from earlier work
animals = conditions: literature; cited from earlier work
[5] = test system: non-NMDA glutamate receptors; conditions: literature; cited from earlier work
[6] = read-out: Ki, affinity for the glycine/NMDA receptor
[7] = iv, Table III, i.v. injection, read-out: ED50 (MES)
[8] = route not stated, read-out: ED50 as an anticonvulsant in the MES experiment in mice
[9] = Table II, footnote b, from binding assays, read-out: Ki

COc1c(Cl)cc2[nH]c(=O)c(=O)[nH]c2c1[N+](=O)[O-] [NO2 OMe Cl H, 7-Chloro-6-methoxy-5-nitro-1,4-dihydroquinoxaline-2,3-dione]
Ki [1]: 450 nM

O=c1[nH]c2c(F)c(Cl)c(F)c([N+](=O)[O-])c2[nH]c1=O [NO2 F Cl F, 7-Chloro-6,8-difluoro-5-nitro-1,4-dihydroquinoxaline-2,3-dione]
times less active than 6,7-dichloro-5-nitro-1,4-dihydroquinoxaline-2,3-dione at the glycine/NMDA receptor (glycine binding site): about 50 times
Ki (glycine binding site; [6]): 170 nM
ED50 (mice; [7]): 2 to 3 mg/kg
ED100 (mice; i.v.): 5 mg/kg
ED50 (mice; [8]): 2 to 3 mg/kg
ED50 (MES) (mice; i.v.): 2 to 3 mg/kg
IV peak of action (mice; i.v.): 2 to 5 min
% protection after 60 min. (mice; i.v., 5 mg/kg): 50%
times better in crossing the blood brain barrier than 6,7-dichloro-5-nitro-1,4-dihydroquinoxaline-2,3-dione [2]: about 100 times

Cc1c(Br)cc2nc(O)c(O)nc2c1[N+](=O)[O-] [NO2 Me Br H, 7-Bromo-6-methyl-5-nitro-1,4-dihydroquinoxaline-2,3-dione]
Ki [1]: 40 nM

CCc1cc2nc(O)c(O)nc2c([N+](=O)[O-])c1Cl [NO2 Cl Et H, 6-Chloro-7-ethyl-5-nitro-1,4-dihydroquinoxaline-2,3-dione]
Ki [1]: 40 nM

COc1ccc2c(c1)[C@]13CCCC[C@@H]1[C@H](C2)N(C)CC3 [dextromethorphan]
neuroprotective efficacy (neurons): have neuroprotective efficacy both in vitro and in vivo

O=c1[nH]c2cc(F)c(F)c([N+](=O)[O-])c2[nH]c1=O [NO2 F F H, 6,7-Difluoro-5-nitro-1,4-dihydro-2,3-quinoxalinedione]
times less active than 6,7-dichloro-5-nitro-1,4-dihydroquinoxaline-2,3-dione at the glycine/NMDA receptor (glycine binding site): more than 20 times
Ki (glycine binding site; [6]): 87 nM
ED50 (mice; [7]): 0.7 to 0.8 mg/kg
ED100 (mice; i.v.): 2.5 mg/kg
ED50 (mice; [8]): 0.7 to 0.8 mg/kg
ED50 (MES) (mice; i.v.): 0.7 to 0.8 mg/kg
IV peak of action (mice; i.v.): 1 min
% protection after 60 min. (mice; i.v., 2.5 mg/kg): 0%
protection against MES after 60 min. (mice; i.v., after 60 min): no more protection was observed
times better in crossing the blood brain barrier than 6,7-dichloro-5-nitro-1,4-dihydroquinoxaline-2,3-dione [2]: about 100 times

CCc1c(Cl)cc2nc(O)c(O)nc2c1[N+](=O)[O-] [NO2 Et Cl H, 7-Chloro-6-ethyl-5-nitro-1,4-dihydroquinoxaline-2,3-dione]
Ki [1]: 200 nM

O=C(O)c1cc2ccccc2[nH]1 [indole-2-carboxylic acid]
glycine site antagonism or affinity (words) [3]: relatively high receptor binding affinity in vitro
penetration of the blood/brain barrier (words) ([4]; literature): cannot penetrate the blood/brain barrier

CCCCOc1c(F)cc2nc(O)c(O)nc2c1[N+](=O)[O-] [NO2 OBu-n F H, 7-Fluoro-6-(n-butoxy)-5-nitro-1,4-dihydroquinoxaline-2,3-dione]
Ki [1]: 6500 nM

[N-]=[N+]=Nc1ccc2[nH]c(=O)c(=O)[nH]c2c1 [H N3 H H, 6-azidol-1,4-dihydroquinoxaline-2,3-dione]
Ki [1, 9]: 910 nM
binding to the glycine binding site (glycine binding site; Table I, compared with other 6-substituted derivatives): quite favorably binds
Ki (glycine binding site; Table I, read-out: Ki): 210 nM

CNC1(c2ccccc2Cl)CCCCC1=O (stereo not shown) [ketamine]
neuroprotective efficacy (neurons): have neuroprotective efficacy both in vitro and in vivo

Cc1c([N+](=O)[O-])c([N+](=O)[O-])c(Cl)c2[nH]c(=O)c(=O)[nH]c12 [Cl NO2 NO2 Me, 5-Chloro-6,7-dinitro-8-methyl-2,3-quinoxalinedione]
Ki [1]: 3800 nM

Cc1ccc2[nH]c(=O)c(=O)[nH]c2c1 [H Me H H, 6-Methyl-1,4-dihydro-2,3-quinoxalinedione]
Ki [1, 9]: 9000 nM

O=c1[nH]c2cc([N+](=O)[O-])cc([N+](=O)[O-])c2[nH]c1=O [5,7-dinitro-1,4-dihydroquinoxaline-2,3-dione]
glycine site antagonism or affinity (words) [3]: potent-antagonist of the strychnine insensitive glycine receptor
in vivo activity (animals): has anticonvulsant properties
penetration of the blood/brain barrier (words) ([4]; literature): poor access to the central nervous system

O=[N+]([O-])c1c(OCCCc2ccccc2)c(F)cc2nc(O)c(O)nc12 [NO2 O(CH2)3 Ph F H, 7-Fluoro-6(3-phenylpropoxy)-5-nitro-1,4-dihydroquinoxaline-2,3-dione]
Ki [1]: 6700 nM

Cc1c(Cl)cc2nc(O)c(O)nc2c1N [NH2 Me Cl H, 5-Amino-7-chloro-1,4-dihydro-6-methylquinoxaline-2,3-dione]
Ki [1]: 500 nM

NC1CCN(O)C1=O (racemic) [HA-966]
glycine site antagonism or affinity (words) [3]: partial agonist with only micromolar affinity for the glycine binding site
penetration of the blood/brain barrier (words) ([4]; literature): sufficiently penetrates the blood/brain barrier

O=C(O)[C@@H]1C[C@H](CP(=O)(O)O)CCN1 [CGS 19755]
neuroprotective efficacy (neurons): have neuroprotective efficacy

O=C(O)c1cc(O)c2c(Cl)cc(Cl)cc2n1 [5,7-dichlorokynurenic acid]
glycine site antagonism or affinity (words) [3]: relatively high receptor binding affinity in vitro
penetration of the blood/brain barrier (words) ([4]; in vivo): cannot penetrate the blood/brain barrier

CCc1cc2[nH]c(=O)c(=O)[nH]c2cc1CC [H Et Et H, 6,7-Diethyl-1,4-dihydroquinoxaline-2,3-dione]
Ki [1]: 800 nM

NS(=O)(=O)c1cccc2c1c([N+](=O)[O-])cc1nc(O)c(O)nc12 [2,3-dihydroxy-6-nitro-7-sulfamoyl-benzo (F) quinoxaline]
neuroprotective efficacy (neurons): neuroprotective in cerebral ischemia models
antagonism at kainate / AMPA / non-NMDA receptors [5]: AMPA selective

c1ccc(C2(N3CCCCC3)CCCCC2)cc1 [PCP, phencyclidine]
neuroprotective efficacy (neurons): have neuroprotective efficacy both in vitro and in vivo

O=C(O)C1CC2CC(CP(=O)(O)O)CCC2CN1 (stereo not shown) [LY274614]
neuroprotective efficacy (neurons): have neuroprotective efficacy

CCc1cc2[nH]c(=O)c(=O)[nH]c2cc1Cl [H Cl Et H, 6-Chloro-7-ethyl-1,4-dihydroquinoxaline-2,3-dione]
Ki [1]: 730 nM
